Values quoted from earlier work in US20030176652A1, “Human and mouse beta-defensins, antimicrobial peptides” (priority 2001, published 2003).
Where “and” joins values, the source holds several entries; their conditions need not be identical. Identical values can stand only once. Like-named read-outs stand apart in the source and are kept apart here. Where no end group is shown, it is not given here.

Experiments:
[1] = tested on: Branhamella (Moraxella) catarrhalis; conditions: Branhamella (Moraxella) catarrhalis (β-lactamase producer)
Campylobacter jejuni = tested on: Campylobacter jejuni; design: MIC90: unit not given beside the values
Staphylococcus hominis = tested on: Staphylococcus hominis; design: unit not given beside the values
Haemophilus influenzae = tested on: Haemophilus influenzae; design: MIC50 / MIC90: unit not given beside the values
Enterococcus spp. = tested on: Enterococcus spp.; design: MIC50 / MIC90: unit not given beside the values
Haemophilus ducreyi = tested on: Haemophilus ducreyi; design: unit not given beside the values
Nocardia asteroides = tested on: Nocardia asteroides; design: MIC50 / MIC90: unit not given beside the values
Campylobacter pylori = tested on: Campylobacter pylori; design: MIC50: unit not given beside the values
Neisseria gonorrhoeae = tested on: Neisseria gonorrhoeae; design: MIC90: unit not given beside the values
Bacillus spp. = tested on: Bacillus spp.; design: MIC90: unit not given beside the values
Streptococcus agalactiae = tested on: Streptococcus agalactiae; design: MIC50 / MIC90: unit not given beside the values
Bacteroides fragilis = tested on: Bacteroides fragilis; design: MIC50 / MIC90: unit not given beside the values
[2] = tested on: Staphylococcus haemolyticus
Streptococcus pyogenes = tested on: Streptococcus pyogenes; design: unit not given beside the values
[3] = tested on: Haemophilus parainfluenzae; design: MIC50 / MIC90: unit not given beside the values
Listeria monocytogenes = tested on: Listeria monocytogenes; design: unit not given beside the values
Staphylococcus aureus [4] = tested on: Staphylococcus aureus; design: MIC50 / MIC90: unit not given beside the values
[5] = tested on: Staphylococcus epidermidis; design: unit not given beside the values
[6] = tested on: Bordetella bronchiseptica; design: MIC50 / MIC90: unit not given beside the values
Streptococcus spp. = tested on: Streptococcus spp.; design: unit not given beside the values
Neisseria meningitidis = tested on: Neisseria meningitidis; design: MIC50 / MIC90: unit not given beside the values
Staphylococcus aureus [7] = conditions: physiological salt concentrations
Mycoplasma hominis = tested on: Mycoplasma hominis; design: MIC50 / MIC90: unit not given beside the values
[8] = tested on: cells expressing the human CCR6
[9] = Haemophilus influenzae (non β-lactamase producer)
[10] = Haemophilus influenzae (penicillin resistant)
[11] = Haemophilus influenzae (penicillin susceptible)
[12] = Haemophilus influenzae (β-lactamase producer)
[13] = Neisseria gonorrhoeae (non β-lactamase producer)
[14] = Staphylococcus aureus (methicillin resistant)
[15] = Staphylococcus aureus (penicillin resistant)
[16] = Staphylococcus aureus (penicillin susceptible)

For CC[C@H]1OC(=O)[C@H](C)[C@@H](O[C@H]2C[C@@](C)(OC)[C@@H](O)[C@H](C)O2)[C@H](C)[C@@H](O[C@@H]2O[C@H](C)C[C@H](N(C)C)[C@H]2O)[C@](C)(O)C[C@@H](C)C(=O)[C@H](C)[C@@H](O)[C@]1(C)O [ERYTHROMYCIN, erythromycin], the Range [1] is listed as 0.06-1 and 0.03-0.25 and 0.06-8, the MIC90 (Campylobacter jejuni) is listed as 4 and 2 and the Range (Campylobacter jejuni) is listed as 0.5-8. For the same compound, the MIC90 (Ureaplasma urealyticum) was 32, the MIC50 (Staphylococcus hominis) was 64 and the MIC90 (Staphylococcus hominis) was 64. For the same compound, the MIC50 (Haemophilus influenzae; Haemophilus influenzae) was 2 and 1, the MIC90 (Haemophilus influenzae; Haemophilus influenzae) was 2 and 4 and the Range (Haemophilus influenzae; Haemophilus influenzae) was 0.5-8 and 0.25-16. The MIC50 (Haemophilus influenzae; [9]) was 2 and 4, the MIC90 (Haemophilus influenzae; [9]) was 4 and 8 and the Range (Haemophilus influenzae; [9]) was 0.06-8. The MIC50 (Haemophilus influenzae; [10]) was 8, the MIC90 (Haemophilus influenzae; [10]) was 16 and the Range (Haemophilus influenzae; [10]) was 8-16. The MIC50 (Haemophilus influenzae; [11]) was 8, the MIC90 (Haemophilus influenzae; [11]) was 16 and the Range (Haemophilus influenzae; [11]) was 0.25-16. The MIC50 (Haemophilus influenzae; [12]) was 4 and 2, the MIC90 (Haemophilus influenzae; [12]) was 8 and 4 and the MIC50 (Enterococcus spp.) was 2. The MIC90 (Enterococcus spp.) was 32, the Range (Enterococcus spp.) was 0.06-32 and the MIC50 (Haemophilus ducreyi) was 0.004. For the same compound, the MIC90 (Haemophilus ducreyi) was 0.06, the MIC50 (Nocardia asteroides) was 8 and the MIC90 (Nocardia asteroides) was 8. For the same compound, the Range (Nocardia asteroides) was 0.25-8, the MIC50 (Campylobacter pylori) was 0.5 and the Range (Campylobacter pylori) was 0.25-16. The MIC90 (Neisseria gonorrhoeae; Neisseria gonorrhoeae) was 1, the Range (Neisseria gonorrhoeae; Neisseria gonorrhoeae) was 0.0075-8 and the MIC90 (Neisseria gonorrhoeae; [13]) was 2 and 1. For the same compound, the Range (Neisseria gonorrhoeae; [13]) was 0.015-4 and 0.03-2, the MIC90 (Neisseria gonorrhoeae; Neisseria gonorrhoeae (β-lactamase producer)) was 2 and 4 and the MIC90 (Bacillus spp.) was 2. For the same compound, the Range (Bacillus spp.) was 0.03-2, the MIC50 (Enterococcus faecium) was 1 and the MIC90 (Enterococcus faecium) was 64. The Range (Enterococcus faecium) was 0.06-64, the MIC50 (Streptococcus agalactiae) was 0.03 and the MIC90 (Streptococcus agalactiae) was 0.03. The Range (Streptococcus agalactiae) was 0.03-0.25 and 0.015-0.06, the MIC50 (Bacteroides fragilis) was 1 and the MIC90 (Bacteroides fragilis) was 8. For the same compound, the Range (Bacteroides fragilis) was 0.25-16, the MIC50 [2] was 64 and the MIC90 [2] was 64. For the same compound, the MIC50 (Streptococcus pyogenes) was 0.06 and 0.03, the MIC50 (Streptococcus pneumoniae) was 0.06 and 0.03 and the MIC90 (Streptococcus pneumoniae) was 0.03 and 0.06. The Range (Streptococcus pneumoniae) was 0.03-0.25 and 0.015-0.06 and 0.015-0.25, the MIC50 (Borrelia burgdorferi) was 0.03 and the MIC90 (Borrelia burgdorferi) was 0.06. For the same compound, the MIC50 (Corynebacterium JK) was 2, the MIC90 (Corynebacterium JK) was 64 and the MIC50 [3] was 2. The MIC90 [3] was 4, the Range [3] was 0.5-8 and the MIC50 (Listeria monocytogenes) was 0.5. For the same compound, the MIC50 (Staphylococcus aureus [4]; Staphylococcus aureus) was 0.5, the MIC50 (Staphylococcus aureus [4]; [14]) was 64 and 32 and the MIC90 (Staphylococcus aureus [4]; [14]) was 64 and 32. For the same compound, the MIC50 (Staphylococcus aureus [4]; Staphylococcus aureus (methicillin susceptible)) was 0.5, the MIC90 (Staphylococcus aureus [4]; [15]) was 32 and the Range (Staphylococcus aureus [4]; [15]) was 0.25-32. For the same compound, the MIC50 (Staphylococcus aureus [4]; [16]) was 0.5, the MIC90 (Staphylococcus aureus [4]; [16]) was 0.5 and the Range (Staphylococcus aureus [4]; [16]) was 0.06-32. For the same compound, the MIC50 [5] was 64, the MIC90 [5] was 64 and the MIC50 [6] was 8. The MIC90 [6] was 32, the Range [6] was 4-32 and the MIC50 (Streptococcus spp.) was 0.03. The MIC50 (Neisseria meningitidis) was 1, the MIC90 (Neisseria meningitidis) was 8 and the Range (Neisseria meningitidis) was 0.5-8.

For “DEFB3: protein encoded by the known human β-defensin gene DEFB3 (GIINTLQKYYCRVRGGRCAVLSCLPKEEQIGKCSTRGRKCCRRKK; not fully specified (bridges); cysteine pairing not given here; UniProt P81534 23-67, looked up)”, the “salt sensitivity of bactericidal activity against Staphylococcus aureus” value (Staphylococcus aureus [7]) is listed as “not salt-sensitive”.

In the case of CCC[C@@H]1C[C@@H](C(=O)N[C@@H]([C@H]2O[C@H](SC)[C@H](O)[C@@H](O)[C@H]2O)[C@@H](C)O)N(C)C1 [LINCOMYCIN, lincomycin], the MIC50 (Ureaplasma urealyticum) is listed as 128, the MIC90 (Ureaplasma urealyticum) is listed as 128 and the Range (Ureaplasma urealyticum) is listed as 64-128. For the same compound, the MIC50 (Mycoplasma pneumoniae) was 8, the MIC90 (Mycoplasma pneumoniae) was 32 and the Range (Mycoplasma pneumoniae) was 2-32. For the same compound, the MIC50 (Mycoplasma hominis) was 2, the MIC90 (Mycoplasma hominis) was 4 and the Range (Mycoplasma hominis) was 0.5-16. For the same compound, the MIC50 (Staphylococcus aureus [4]; Staphylococcus aureus) was 1, the MIC90 (Staphylococcus aureus [4]; Staphylococcus aureus) was 1 and the Range (Staphylococcus aureus [4]; Staphylococcus aureus) was 0.5-512.

In the case of “CCL20: the only reported chemokine ligand for CCR6”, the “chemokine activity relative to HBD-1 and HBD-2” value ([8]; greater than that of HBD-1 and HBD-2) is given as “approximately 10 fold”.

For “HBD-2: HBD-2 protein encoded by the DEFB2 gene (GIGDPVTCLKSGAICHPVFCPRRYKQIGTCGLPGTKCCKKP; UniProt O15263 24-64, looked up)”, the “chemotaxis of cells expressing the human CCR6” value [8] is given as “selectively chemotactic” and the “histamine release from mast cells” value (mast cells) is given as “stimulates mast cells to release histamine”.

In the case of “HBD-1: known human β-defensin peptide, product of DEFB1 (DHYNCVSSGGQCLYSACPIFTKIQGTCYRGKAKCCK; not fully specified (bridges); cysteine pairing not given here; UniProt P60022 33-68, looked up)”, the “chemotaxis of cells expressing the human CCR6” value [8] is listed as “selectively chemotactic”.
